Active and inactive are the calls of the source. The rule behind the calls is not given here.

This data set is described as follows: Cytotoxicity activity against human HepG2 cells assessed by CellTiter-Glo luminescent cell viability assay. The class given is toxicity, cell-based. Further details: assay stage confirmatory assay, source tissue liver. Particulars: HepG2 cells, read-out: IC50 relative.

As to `CCC(=O)Nc1ccc(C(=O)Cn2ncc(Cl)c(Cl)c2=O)cc1`, the CC50 was 3.3 µM (active).
To `CNc1nc(N2CCN(C)CC2)nc2ccccc12` belongs 5.5 µM (active); to `Cn1c(=O)oc2cc(S(=O)(=O)Nc3cccc4cccnc34)ccc21`, 16.7 µM (active); to `CC(C)(C)c1n[nH]c2c(-c3nc4ccccc4s3)c(N)nn2c1=O`, 35.4 µM (inactive).
As for `O=C(Cc1ccsc1)Nc1nc(-c2ccccn2)cs1`, the CC50 was 3.2 µM (active).
With `CCOCCCNC(=O)c1nnn(-c2ccc3ncccc3c2)c1C`, the CC50 is 3.1 µM (active).
For the compound `c1ccc([C@H](CC2CCC2)NC2CCC3(CC2)OCCO3)cc1`, the CC50 is 4 µM (active).
With `Cc1ccc(Cc2cnc(NC(=O)NC[C@H](C)CN3CCN(C)CC3)s2)cc1`, the CC50 is 7.6 µM (active).
Next, `O=C(Nc1ccccn1)c1cccc(NS(=O)(=O)c2c[nH]c3ncccc23)c1`: 8.6 µM (active); `COc1ccc(OC)c(C2CC(c3c(O)[nH]c(=O)n(C4CCCCC4)c3=O)=NN2)c1` (stereo not given): 5.7 µM (active).
Regarding `C[C@@H]1Oc2ccccc2N(CC(=O)Nc2nc(-c3ccccn3)cs2)C1=O`, the CC50 was 3.3 µM (active).
Take `N#Cc1ccc(CN2CCN(C(=O)c3ccc(-n4cccn4)cc3)CC2)cc1`: the CC50 was 8.6 µM (active).
For the compound `COc1ccc(OCCCN2CCN(S(=O)(=O)c3ccc(S(N)(=O)=O)cc3)CC2)cc1`, the CC50 was 15.9 µM (inactive).
`O[C@@H](CNCc1cc2ccccc2nc1N1CCCCC1)CN1CCCC1`: the CC50 was 9.8 µM (active).
Consider `c1ccc2c(c1)sc1ncnc(NC[C@H]3CN(C4CC4)CCO3)c12`, for which the CC50 is 11.8 µM (active).
`CCN(Cc1nc2cc(OC)c(OC)cc2c(=O)[nH]1)C(=O)c1ccc2c(c1)OCO2`: the CC50 was 12.7 µM (active).
On to `CCCCn1nnnc1Cn1ncc(Cl)c(Cl)c1=O`, for which the CC50 is 3 µM (active).
Turning to `COc1ccc(-c2nnc(Cn3ncc(Cl)c(Cl)c3=O)o2)cc1`, the CC50 is 0.9 µM (active).
Regarding `COCCN1CCCC(CNC2CCN(c3ccccc3Cl)CC2)C1` (stereo not given), the CC50 was 5.2 µM (active).
In the case of `NC(=O)c1cc(NC(=O)CCSc2ccccc2Br)[nH]n1`, the CC50 is 13.6 µM (active).
For the compound `O=C(Cc1ccc(-n2cccn2)cc1)Nc1nccs1`, the CC50 is 0.6 µM (active).
To `O=C(Nc1nc(-c2ccccc2)cs1)C1CCN(S(=O)(=O)c2cccnc2)CC1` belongs 6 µM (active).
In the case of `CCOc1ncccc1C(=O)Nc1nc2cc(C#N)ccc2n1CC`, the CC50 was 5.9 µM (active).
For the compound `COc1ccc(OC[C@@H](O)CN(C)Cc2ccc(C)o2)c(C(C)(C)C)c1`, the CC50 was 21.3 µM (inactive).
`Cc1ccc(NC(=O)Nc2ccc(Cl)cc2)cc1NS(C)(=O)=O`: the CC50 was 3.6 µM (active).
Consider `CC(C)n1ncc2cc(NC(=O)c3ccc(=O)n(Cc4ccccc4)n3)cnc21`, for which the CC50 is 9.2 µM (active).
In the case of `O=C(Nc1nccs1)c1cccc(S(=O)(=O)N2CCN(c3ccc(F)cc3)CC2)c1`, the CC50 was 3.1 µM (active).
For the compound `CCCn1c(NC(=O)c2cccc(S(=O)(=O)N3CCN(C(C)=O)CC3)c2)nc2ccccc21`, the CC50 is 8.3 µM (active).
Regarding `CC(C)[C@H](NC1CCN(C(=O)c2ccco2)CC1)c1ccccc1`, the CC50 is 10.6 µM (inactive).
Consider `CN(C)S(=O)(=O)N1CCN(C(=O)c2cnn(-c3ccc(Cl)cc3)c2C(F)(F)F)CC1`, for which the CC50 is 5.2 µM (active).
Next, `CCCCNc1nc(-c2cc(C)ccn2)cs1`: 6.3 µM (active); `Cc1ccc([C@H](CC(=O)c2ccco2)SCCO)cc1`: 11.4 µM (active); `CC(C)Cn1ncc2cc(C(=O)Nc3nc4ccccc4[nH]3)cnc21`: 15.5 µM (inactive).
Take `N#Cc1ccc(NC(=O)c2cccc3ncccc23)cc1`: the CC50 was 10.8 µM (inactive).
Take `CNc1ccc(Br)cc1N`: the CC50 is 4.1 µM (active).
On to `Cc1cc(C)cc(OCCN(C)[C@@H](C)c2nc(N)nc(N(C)C)n2)c1`, for which the CC50 is 9 µM (active).
Consider `COc1ccc(-c2csc3[nH]c(=O)cc(O)c23)cc1`, for which the CC50 was 3.7 µM (active).
Turning to `Nc1ccncc1CCC1CCCCC1`, the CC50 was 10.7 µM (active).
In the case of `COc1ccc2[nH]c(NC(=O)[C@@H]3CCCC(=O)N3)cc2c1`, the CC50 is 4.6 µM (active).
On to `Cn1c(=O)c2c(ncn2CCn2ncc(Cl)c(Cl)c2=O)n(C)c1=O`, for which the CC50 is 11.7 µM (active).
Take `Cc1nccn1-c1ccc(NC(=O)c2cccc(OC(C)C)n2)cn1`: the CC50 was 6.5 µM (active).
As to `Cc1csc2nc(CN[C@H](c3ccc(Cl)cc3)C3CC3)cc(=O)n12`, the CC50 is 2.6 µM (active).
Take `Cc1nc(-c2ccccc2)oc1C(=O)Nc1ccc(N2CCN(C)CC2)cn1`: the CC50 is 12.9 µM (active).
Regarding `Cc1ccc(NC(=O)Cc2ccc(-n3cccn3)cc2)nc1`, the CC50 was 0.4 µM (active).
Consider `CCn1cc(CC(=O)Nc2ccc(Oc3ccccc3)cn2)cn1`, for which the CC50 was 5.3 µM (active).
Turning to `c1ccc(-n2cnc3c(Nc4cnn(C[C@H]5CCCO5)c4)ncnc32)cc1`, the CC50 is 5.8 µM (active).
As for `COc1ccc2cc(C(=O)Nc3ccc4oc(=O)[nH]c4c3)[nH]c2c1`, the CC50 was 32.5 µM (inactive).
Consider `C[C@@H]1NC(C(=O)Nc2ccnc3ccnn23)=NN(c2ccccc2)C1=O`, for which the CC50 is 13.2 µM (active).
Consider `Cc1nn(-c2ccccc2)nc1C(=O)Nc1ccc(S(=O)(=O)NCCCN2CCOCC2)cc1`, for which the CC50 is 10.3 µM (active).
For `O=S(=O)(c1ccc(N2CCN(c3ncnc4c3oc3ccccc34)CC2)nc1)N1CCOCC1`, the CC50 is 3.3 µM (active).
In the case of `Cc1nn(-c2cccc(Cl)c2)nc1C(=O)N(C)C1CCNCC1`, the CC50 is 11.4 µM (active).
To `CCOc1ccc(OCCN2CCC[C@H](n3ccnc3CC)C2)cc1` belongs 8.4 µM (active).
`O=S(=O)(Nc1ccc(Cl)c2cccnc12)c1c[nH]c2ncccc12`: the CC50 was 5.5 µM (inactive).
`Oc1ccc(CN2CCc3ccccc3C2)cc1`: the CC50 is 3.4 µM (active).
On to `CS(=O)(=O)c1ncc(Cl)c(C(=O)Nc2ccc(Cl)cc2)n1`, for which the CC50 is 4.1 µM (active).
Consider `Cc1ccc(NC(=O)c2cccc(F)c2Cl)cc1O`, for which the CC50 is 0.7 µM (active).
Next, `CC1=NNc2nc3c(c(=O)n(Cc4ccccc4Cl)c(=O)n3C)n2[C@H]1C`: 21.1 µM (inactive); `N#Cc1ccc(CN2CCN(C(=O)c3ccc(Cn4cccn4)cc3)CC2)cc1`: 3.9 µM (active).
For `CC(C)(C)n1ncc(N2CCN(c3ccc(C#N)cc3F)CC2)c(Cl)c1=O`, the CC50 was 22.7 µM (active).
Take `Clc1ccc(C2=CCNCC2)cc1Cl`: the CC50 was 10.8 µM (active).
`CC(C)CN(CCS(=O)(=O)c1ccc(C(C)(C)C)cc1)C1CCN(C)CC1`: the CC50 was 4.4 µM (active).
`Cc1nonc1Cn1nc(Cl)c(Cl)cc1=O`: the CC50 was 21.6 µM (inactive).
For `Cn1nc(C(=O)Nc2ccc(Oc3ccc(F)cc3)cn2)ccc1=O`, the CC50 was 6.7 µM (active).
On to `Cc1c(CNCCCN2CCCCC2CO)oc2ccccc12` (stereo not given), for which the CC50 is 9.8 µM (active).
As for `CN(c1ccc(-c2csc(NC(=O)CCc3ccco3)n2)cc1)S(C)(=O)=O`, the CC50 is 6 µM (active).

(Values after ChEMBL document CHEMBL5303711, “ECBD screening data for assay EOS300108” (2023).)
